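Compound exposure: 48 hours, 5 concentrations, 96-well plates. Abbreviation: GI50, concentration required for 50% inhibition of growth.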 The source made the active and inactive calls. Rule as the data show it: active = GI50 up to about 1.1 µM and inactive = higher.
Experiments:
Assay in all cases: NCI tumour cell line growth inhibition, 48 h
HCT-116 = test system: HCT-116
OVCAR-8 = test system: OVCAR-8
UACC-257 = test system: UACC-257
MDA-MB-435 = test system: MDA-MB-435
SF-295 = test system: SF-295
SF-268 = test system: SF-268
Malme-3M = test system: Malme-3M
SK-MEL-28 = test system: SK-MEL-28
MCF7 = test system: MCF7
786-0 = test system: 786-0
HL-60 = test system: HL-60
SN12C = test system: SN12C
HT-29 = test system: HT-29
SNB-19 = test system: SNB-19
HOP-92 = test system: HOP-92
SW-620 = test system: SW-620
M14 = test system: M14
MDA-N = test system: MDA-N
NCI-H522 = test system: NCI-H522
HCC 2998 = test system: HCC 2998

Row | SMILES | GI50 (HCT-116) | GI50 (OVCAR-8) | GI50 (UACC-257) | GI50 (MDA-MB-435) | GI50 (SF-295) | GI50 (SF-268) | GI50 (Malme-3M) | GI50 (SK-MEL-28) | GI50 (MCF7) | GI50 (786-0) | GI50 (HL-60) | GI50 (SN12C) | GI50 (HT-29) | GI50 (SNB-19) | GI50 (HOP-92) | GI50 (SW-620) | GI50 (M14) | GI50 (MDA-N) | GI50 (NCI-H522) | GI50 (HCC 2998)
1 | COc1cc(S(=O)(=O)Nc2ccc(-c3csc(N4C(=O)C(Cl)C4c4ccccc4)n3)cc2)ccc1Cl (stereo not drawn) | 59.6 µM (inactive) | 20.1 µM (inactive) | 8.45 µM (inactive) | 38.5 µM (inactive) | > 100 µM (inactive) | 33.9 µM (inactive) | 22.3 µM (inactive) | 66.5 µM (inactive) | 27.1 µM (inactive) | 19.2 µM (inactive) | 54.6 µM (inactive) | 24.9 µM (inactive) | > 100 µM (inactive) | > 100 µM (inactive) | 18.2 µM (inactive) | 50.4 µM (inactive) | 24 µM (inactive) | 37.5 µM (inactive) | 3.14 µM (inactive) | –
2 | CC(C)(C)c1ccc(O)c(Br)c1 | > 100 µM (inactive) | > 100 µM (inactive) | 26.2 µM (inactive) | > 100 µM (inactive) | > 100 µM (inactive) | > 100 µM (inactive) | > 100 µM (inactive) | > 100 µM (inactive) | > 100 µM (inactive) | > 100 µM (inactive) | 36.6 µM (inactive) | > 100 µM (inactive) | > 100 µM (inactive) | > 100 µM (inactive) | – | > 100 µM (inactive) | > 100 µM (inactive) | > 100 µM (inactive) | > 100 µM (inactive) | 51.8 µM (inactive)
3 | C[C@]12CC[C@H](O)CC1=CC[C@@H]1[C@@H]2CC[C@]2(C)C(=N/N)/C(=N\O)C[C@@H]12 | 43.4 µM (inactive) | > 100 µM (inactive) | > 100 µM (inactive) | 2.12 µM (inactive) | 35.1 µM (inactive) | 59.7 µM (inactive) | 27.1 µM (inactive) | – | > 100 µM (inactive) | 50.7 µM (inactive) | 9.91 µM (inactive) | > 100 µM (inactive) | 36 µM (inactive) | 35.2 µM (inactive) | 2.42 µM (inactive) | 60 µM (inactive) | > 100 µM (inactive) | 11.9 µM (inactive) | 31.7 µM (inactive) | –
4 | C=CCOC(=O)Cn1cc(C)c(=O)[nH]c1=O | > 100 µM (inactive) | > 100 µM (inactive) | > 100 µM (inactive) | > 100 µM (inactive) | > 100 µM (inactive) | > 100 µM (inactive) | > 100 µM (inactive) | > 100 µM (inactive) | > 100 µM (inactive) | > 100 µM (inactive) | > 100 µM (inactive) | > 100 µM (inactive) | > 100 µM (inactive) | > 100 µM (inactive) | – | > 100 µM (inactive) | > 100 µM (inactive) | > 100 µM (inactive) | – | > 100 µM (inactive)
5 | CN(C)/N=N/c1ccc2[nH]c(=O)[nH]c2c1 | > 100 µM (inactive) | > 100 µM (inactive) | > 100 µM (inactive) | > 100 µM (inactive) | > 100 µM (inactive) | > 100 µM (inactive) | > 100 µM (inactive) | > 100 µM (inactive) | > 100 µM (inactive) | > 100 µM (inactive) | 19.2 µM (inactive) | > 100 µM (inactive) | > 100 µM (inactive) | > 100 µM (inactive) | – | > 100 µM (inactive) | > 100 µM (inactive) | > 100 µM (inactive) | > 100 µM (inactive) | > 100 µM (inactive)
6 | COc1cc(O)c2c(O)c3c(c4c2c1[C@]1(C4)C(C)=CCCC1(C)C)[C@H](O)[C@@]1(O)CC(O)=C(C(N)=O)C(=O)[C@@]1(O)C3=O | 0.209 µM (active) | 0.113 µM (active) | 0.231 µM (active) | 0.0667 µM (active) | 0.322 µM (active) | 0.269 µM (active) | 0.158 µM (active) | 0.873 µM (active) | 0.164 µM (active) | 0.247 µM (active) | 0.164 µM (active) | 0.0531 µM (active) | 0.0615 µM (active) | 0.42 µM (active) | 0.362 µM (active) | 0.0619 µM (active) | 0.126 µM (active) | 0.333 µM (active) | 0.071 µM (active) | –
7 | CCC1=C(CC2NCCc3cc(OC)c(OC)cc32)CC2c3ccccc3CCN2C1 (stereo not drawn) | 8.55 µM (inactive) | 37.5 µM (inactive) | 18.1 µM (inactive) | 13.1 µM (inactive) | 20.4 µM (inactive) | 31.5 µM (inactive) | 14.6 µM (inactive) | 13.9 µM (inactive) | 18.7 µM (inactive) | 14 µM (inactive) | 9.06 µM (inactive) | 21.7 µM (inactive) | 5.56 µM (inactive) | 36.9 µM (inactive) | 12.8 µM (inactive) | 13.8 µM (inactive) | 14.3 µM (inactive) | 14 µM (inactive) | 14.8 µM (inactive) | –
8 | Nc1nc(N)c2ncn(-c3ccc(Br)cc3)c2n1 | 25.5 µM (inactive) | 14.6 µM (inactive) | > 100 µM (inactive) | 39.2 µM (inactive) | 34.4 µM (inactive) | 15.4 µM (inactive) | 10.6 µM (inactive) | > 43.3 µM (inactive) | 20.3 µM (inactive) | 28.1 µM (inactive) | – | 16.9 µM (inactive) | 15.1 µM (inactive) | > 59.4 µM (inactive) | – | 45.9 µM (inactive) | 14.6 µM (inactive) | 60.4 µM (inactive) | 9.77 µM (inactive) | 37.7 µM (inactive)
9 | CCN(C(=O)N[C@@H](Cc1ccccc1)C(=O)N[C@@H](CC(C)C)C(=O)OC)c1ccccc1 | 20.2 µM (inactive) | 15.3 µM (inactive) | 23.2 µM (inactive) | 51.6 µM (inactive) | 26.5 µM (inactive) | – | – | 17.5 µM (inactive) | 24 µM (inactive) | 19.8 µM (inactive) | – | 16 µM (inactive) | 14.3 µM (inactive) | 77.6 µM (inactive) | 22.2 µM (inactive) | 25.4 µM (inactive) | 8.24 µM (inactive) | 69.3 µM (inactive) | 9.55 µM (inactive) | 30.8 µM (inactive)
10 | Cc1nc2ccc(Cl)cc2c2c1CCN2c1ccc(F)cc1 | 5.75 µM (inactive) | 22.5 µM (inactive) | 14.3 µM (inactive) | 7.05 µM (inactive) | 82.8 µM (inactive) | 58.3 µM (inactive) | 24.8 µM (inactive) | 20 µM (inactive) | 12.2 µM (inactive) | 11.8 µM (inactive) | 17.1 µM (inactive) | 26.5 µM (inactive) | 4.94 µM (inactive) | 33.1 µM (inactive) | – | 27.1 µM (inactive) | 16.5 µM (inactive) | 7 µM (inactive) | 44.2 µM (inactive) | 23.6 µM (inactive)
11 | CCCCC1(O)CC2CC1C(C)C2(C)C (stereo not drawn) | > 100 µM (inactive) | > 100 µM (inactive) | > 100 µM (inactive) | > 100 µM (inactive) | > 100 µM (inactive) | > 100 µM (inactive) | > 100 µM (inactive) | > 100 µM (inactive) | > 100 µM (inactive) | > 100 µM (inactive) | 21.5 µM (inactive) | > 100 µM (inactive) | > 100 µM (inactive) | > 100 µM (inactive) | – | > 100 µM (inactive) | > 100 µM (inactive) | > 100 µM (inactive) | – | > 100 µM (inactive)

From ChEMBL document CHEMBL1201862, “PubChem BioAssay data set” (2004)
